Source: patent publication EP0411495A2, “Ergoline derivatives of proline and related compounds having dopaminergic activity” (priority 1989, dated 1991)
Like-named read-outs stand apart in the source and are kept apart here.

How the values were obtained:
guinea pig platelet = experiment: In vitro guinea pig platelet aggregation induced by ADP; assay type: cell-based; conditions: guinea pig platelets
From the text: Moreover, compounds (I) have an effective antiag gregating activity on the in vitro guinea pig platelet aggregation induced by ADP.

rat seminal vesicle = experiment: Adrenolytic activity, in vitro rat seminal vesicle test
From the text: Most of the compounds of formula (I) have a marked adrenolytic activity in the in vitro rat seminal vesicle test.

isolated rat uterus = tested on: isolated rat uterus
From the text: All the compounds of the invention have a marked antiserotonin activity in the in vitro test on isolated rat uterus.

[1] = tested on: spontaneously hypertensive rats (SHR); experiment: Antihypertensive activity on spontaneously hypertensive rats (SHR); assay type: in vivo, rat; conditions: for Mean arterial pressure % reduction: SHR; for hypotensive activity: result in words
reserpinized rat = experiment: Antihyperprolactinemic activity in the reserpinized rat; assay type: in vivo; conditions: for Plasmatic prolactin % reduction: reserpinized rat; for antihyperprolactinemic activity: result in words
From the text: All compounds (I) have a marked antihyperprolactinemic activity in the reserpinized rat.

mouse [2] = experiment: Locomotor activity in the mouse; assay type: in vivo
mouse [3] = experiment: Acute toxicity by the oral route in the mouse; assay type: in vivo
rat = experiment: Stereotypy test in the rat; assay type: in vivo; conditions: for activity on C.N.S.: result in words; for Mean score: stereotypy, rat
[4] = antiserotonin activity, in vitro isolated rat uterus
[5] = After 1 hour (dose 0.25 mg/kg os)
[6] = After 2 hours (dose 0.50 mg/kg os)

Structure (SMILES)	ED₅₀ (rat seminal vesicle) [µg/mL]	ED₅₀ (isolated rat uterus; [4]) [µg/mL]	antiserotonin activity (isolated rat uterus; result in words)	Mean arterial pressure % reduction ([1]; dose = 1 mg/kg i.p.) [%]	Mean arterial pressure % reduction ([1]; dose = 3 mg/kg i.p.) [%]	Plasmatic prolactin % reduction (reserpinized rat; [5]) [%]	other results
CN1C[C@H](CN2CCC[C@H]2CO)C=C2c3cccc4[nH]cc(c34)C[C@H]21.Cl.Cl [P 1421]	2.82	0.011	remarkable antiserotonin activity	–	–	–	Platelet aggregation % reduction (guinea pig platelet; Dose 40 mcg/ml): 25%
CN1C[C@H](C(=O)N2CC(O)C[C@H]2CO)C=C2c3cccc4[nH]c(Br)c(c34)C[C@H]21 (stereo partly shown) [P 1415]	0.95	0.015	remarkable antiserotonin activity	–	–	–	–
CC(C)C[C@H]1C(=O)N2CCC[C@H]2[C@]2(O)O[C@](NC(=O)[C@@H]3C[C@@H]4c5cccc6[nH]cc(c56)C[C@H]4N(C)C3)(C(C)C)C(=O)N12 [Dihydro-α-ergocryptine, reference compound]	–	0.035	–	18.3	29.0	52.4	Plasmatic prolactin % reduction (reserpinized rat; [6]): 66.1%; Platelet aggregation % reduction (guinea pig platelet; Dose 20 mcg/ml): 25%; % inhibition (mouse [2]; dose 20 mg/kg i.p.): 74.3%
CN1CC(C(=O)N2CC(O)CC2CO)CC2c3cccc4[nH]cc(c34)CC21 (stereo not shown) [P 1422]	2.89	0.014	remarkable antiserotonin activity	18.8	40.8	77.1	hypotensive activity [1]: high hypotensive activity; antihyperprolactinemic activity (reserpinized rat): interesting antihyperprolactinemic activity; % inhibition (mouse [2]; dose 20 mg/kg i.p.): 79.8%
CN1C[C@H](C(=O)N2C[C@H](O)C[C@H]2CO)C=C2c3cccc4[nH]cc(c34)C[C@H]21 [P 1414, N-(D-Lysergyl)-4-hydroxy-L-prolinol]	–	0.007	–	17.9	31.2	–	hypotensive activity [1]: high hypotensive activity
CC[C@@H](CO)NC(=O)[C@@H]1C=C2c3cccc4c3c(cn4C)C[C@H]2N(C)C1 [Methysergid, reference compound]	2.48	–	–	–	–	–	–
COC(=O)[C@@H]1C[C@@H](O)CN1C(=O)[C@@H]1C=C2c3cccc4[nH]cc(c34)C[C@H]2N(C)C1.O=C(O)/C=C\C(=O)O [P 1413, N-(D-Lysergyl)-4-hydroxy-L-proline methyl ester maleate]	–	–	–	–	–	–	ED₅₀ (isolated rat uterus): 0.004 µg/mL; antiserotonin activity (isolated rat uterus): remarkable antiserotonin activity
CN1C[C@H](C(=O)N2CCC[C@H]2C(=O)O)C=C2c3cccc4[nH]cc(c34)C[C@H]21 [P 1411]	–	0.370	–	–	–	–	% inhibition (mouse [2]; dose 20 mg/kg i.p.): 80.9%
CN1C[C@H](C(=O)N2CCC[C@H]2C#N)C=C2c3cccc4[nH]cc(c34)C[C@H]21.Cl [P 1419]	0.22	0.073	–	–	–	68.4	Plasmatic prolactin % reduction (reserpinized rat; [6]): 84.1%; antihyperprolactinemic activity (reserpinized rat): interesting antihyperprolactinemic activity; % inhibition (mouse [2]; dose 0.625 mg/kg i.p.): 63.2%; acute toxicity (mouse [3]): slightly more toxic; activity on C.N.S. (rat): marked activity on C.N.S.; Mean score (rat; dose 0.625 mg/kg i.p.): 2.50
CN1C[C@H](C(=O)N2CC(O)C[C@H]2CO)C=C2c3cccc4c3c(cn4C)C[C@H]21.Cl (stereo partly shown) [P 1417]	3.52	0.001	remarkable antiserotonin activity	–	–	–	–
CN1C[C@H](C(=O)N2CCC[C@H]2CO)C=C2c3cccc4[nH]cc(c34)C[C@H]21.O=C(O)/C=C\C(=O)O [P 1410]	–	0.059	remarkable antiserotonin activity	17.8	–	65.7	hypotensive activity [1]: high hypotensive activity; antihyperprolactinemic activity (reserpinized rat): interesting antihyperprolactinemic activity; activity on C.N.S. (rat): marked activity on C.N.S.; Mean score (rat; dose 10 mg/kg i.p.): 2.62
COC(=O)[C@@H]1CCCN1C(=O)[C@@H]1C=C2c3cccc4[nH]cc(c34)C[C@H]2N(C)C1.O=C(O)/C=C\C(=O)O [P 1409, N-(D-Lysergyl)-L-proline methyl ester maleate]	1.02	–	–	22.1	27.5	–	hypotensive activity [1]: high hypotensive activity; % inhibition (mouse [2]; dose 2.5 mg/kg i.p.): 69.5%; activity on C.N.S. (rat): marked activity on C.N.S.; Mean score (rat; dose 1.25 mg/kg i.p.): 1.00; ED₅₀ (isolated rat uterus): 0.010 µg/mL; antiserotonin activity (isolated rat uterus): remarkable antiserotonin activity
CC(C)[C@@]1(NC(=O)[C@@H]2C[C@@H]3c4cccc5[nH]cc(c45)C[C@H]3N(C)C2)O[C@@]2(O)[C@@H]3CCCN3C(=O)[C@H](Cc3ccccc3)N2C1=O [Dihydroergocristine, reference compound]	–	0.007	–	18.1	32.0	47.4	Platelet aggregation % reduction (guinea pig platelet; Dose 40 mcg/ml): 25%; % inhibition (mouse [2]; dose 10 mg/kg i.p.): 47.7%; Mean score (rat; dose 10 mg/kg i.p.): 2.37
CC(C)C[C@H]1C(=O)N2CCC[C@H]2[C@]2(O)O[C@](NC(=O)[C@@H]3C=C4c5cccc6[nH]c(Br)c(c56)C[C@H]4N(C)C3)(C(C)C)C(=O)N12 [α-Bromocryptine, reference compound]	–	0.470	–	–	–	78.2	Plasmatic prolactin % reduction (reserpinized rat; [6]): 80.9%; Platelet aggregation % reduction (guinea pig platelet; Dose 80 mcg/ml): 25%; % inhibition (mouse [2]; dose 10 mg/kg i.p.): 78.7%; Mean score (rat; dose 10 mg/kg i.p.): 2.25
CC[C@@H](CO)NC(=O)[C@@H]1C=C2c3cccc4[nH]cc(c34)C[C@H]2N(C)C1 [Methylergometrine, reference compound]	–	–	–	15.7	29.4	–	–
CN1C[C@H](C(=O)N2CCC[C@H]2C#N)C=C2c3cccc4c3c(cn4C)C[C@H]21.Cl [P 1420]	0.50	0.003	remarkable antiserotonin activity	–	–	50.1	antihyperprolactinemic activity (reserpinized rat): interesting antihyperprolactinemic activity; % inhibition (mouse [2]; dose 5 mg/kg i.p.): 82.7%; acute toxicity (mouse [3]): slightly more toxic; activity on C.N.S. (rat): marked activity on C.N.S.; Mean score (rat; dose 2.5 mg/kg i.p.): 2.17
